Source: the OligoGym collection
Bases are written 5' to 3'; sugars and linkages follow in the same order, as letters with counts (s phosphorothioate, o phosphodiester; PS: all linkages phosphorothioate). C may stand for cytosine or 5-methylcytosine; the collection does not tell. l = locked nucleic acid (LNA); d = 2'-deoxy (DNA)

Biological target: HIF1A
Assay: HeLa, 100 nM transfected, 24 h, mean of 3
Settings: ASO

| Sequence | caspase activation (% of PBS control) |
| --- | --- |
| GTTACTGCCTTCTTAC (sugars l3 d9 l1 d2 l1, PS) | 185 |
| GTTACTGCCTTCTTAC (sugars l3 d9 l2 d1 l1, PS) | 202 |
| GTTACTGCCTTCTTAC (sugars l3 d9 l4, PS) | 165 |
| GTTACTGCCTTCTTAC (sugars l3 d10 l1 d1 l1, PS) | 161 |
| GTTACTGCCTTCTTAC (sugars l3 d10 l3, PS) | 134 |
| GTTACTGCCTTCTTAC (sugars l3 d11 l2, PS) | 136 |
| GTTACTGCCTTCTTAC (sugars l3 d12 l1, PS) | 127 |
| GTTACTGCCTTCTTAC (sugars l4 d7 l1 d1 l3, PS) | 253 |
| GTTACTGCCTTCTTAC (sugars l4 d7 l1 d2 l2, PS) | 255 |
| GTTACTGCCTTCTTAC (sugars l4 d7 l1 d3 l1, PS) | 250 |
| GTTACTGCCTTCTTAC (sugars l4 d7 l2 d1 l2, PS) | 291 |
| GTTACTGCCTTCTTAC (sugars l4 d7 l2 d2 l1, PS) | 264 |
| GTTACTGCCTTCTTAC (sugars l4 d7 l3 d1 l1, PS) | 444 |
| GTTACTGCCTTCTTAC (sugars l4 d7 l5, PS) | 461 |
| GTTACTGCCTTCTTAC (sugars l4 d8 l1 d1 l2, PS) | 218 |
| GTTACTGCCTTCTTAC (sugars l4 d8 l1 d2 l1, PS) | 209 |
| GTTACTGCCTTCTTAC (sugars l4 d8 l2 d1 l1, PS) | 284 |
| GTTACTGCCTTCTTAC (sugars l4 d8 l4, PS) | 272 |
| GTTACTGCCTTCTTAC (sugars l4 d9 l1 d1 l1, PS) | 191 |
| GTTACTGCCTTCTTAC (sugars l4 d9 l3, PS) | 160 |

| Sequence | caspase activation (% of PBS control) |
| --- | --- |
| GTTACTGCCTTCTTAC (sugars l4 d10 l2, PS) | 190 |
| GTTACTGCCTTCTTAC (sugars l4 d11 l1, PS) | 159 |
| GTTACTGCCTTCTTAC (sugars l5 d6 l1 d1 l3, PS) | 441 |
| GTTACTGCCTTCTTAC (sugars l5 d6 l1 d2 l2, PS) | 442 |
| GTTACTGCCTTCTTAC (sugars l5 d6 l1 d3 l1, PS) | 454 |
| GTTACTGCCTTCTTAC (sugars l5 d6 l2 d1 l2, PS) | 488 |
| GTTACTGCCTTCTTAC (sugars l5 d6 l2 d2 l1, PS) | 492 |
| GTTACTGCCTTCTTAC (sugars l5 d6 l3 d1 l1, PS) | 603 |
| GTTACTGCCTTCTTAC (sugars l5 d6 l5, PS) | 624 |
| GTTACTGCCTTCTTAC (sugars l5 d7 l1 d1 l2, PS) | 454 |
| GTTACTGCCTTCTTAC (sugars l5 d7 l1 d2 l1, PS) | 446 |
| GTTACTGCCTTCTTAC (sugars l5 d7 l2 d1 l1, PS) | 515 |
| GTTACTGCCTTCTTAC (sugars l5 d7 l4, PS) | 574 |
| GTTACTGCCTTCTTAC (sugars l5 d8 l1 d1 l1, PS) | 457 |
| GTTACTGCCTTCTTAC (sugars l5 d8 l3, PS) | 512 |
| GTTACTGCCTTCTTAC (sugars l5 d9 l2, PS) | 363 |
| GTTACTGCCTTCTTAC (sugars l5 d10 l1, PS) | 284 |
| GTTACTGCCTTCTTAC (sugars lddddddddddldldl, PS) | 115 |
| GTTACTGCCTTCTTAC (sugars ldddlddddddddldl, PS) | 159 |
| GTTACTGCCTTCTTAC (sugars ldddldddddddlddl, PS) | 142 |
